In patent US20240408085A1, “COMPOUND FOR DEGRADATION OF BCL-2 FAMILY PROTEINS AND MEDICAL APPLICATION THEREOF” (XIZANG HAISCO PHARMACEUTICAL CO., LTD., priority 2021, published 2024):

System: MOLT-4 cells
Assay: Cell proliferation activity in MOLT-4 cells (72 h, cell viability luminescence)
Format: cell-based, human
Settings: Homo sapiens, read-out: IC50 for the inhibition of MOLT-4 cell proliferation
Protocol: MOLT-4 cells are acute lymphoblastic leukemia cell lines in humans. The cells were purchased from ATCC. Culture conditions: RPMI-1640+10% FBS+1% penicillin-streptomycin solution. The cells were cultured in a 37° C., 5% CO2 incubator. The cells were plated in a 96-well plate, with 5×10^3 cells/well. After plating, compounds at different concentrations were added and cultured in a 37° C., 5% CO2 incubator for 72 h. After the completion of culture, a reagent (Promega, G7573) for detecting the cell viability was added. The mixture was uniformly mixed for 2 minutes and then incubated at room temperature for 10 minutes. The luminescence signal was detected with a multimode plate reader (BMG, PHERAstar FSX). The luminescence readings were processed using GraphPad Prism 8.0 software and the IC50 values of the compounds for the inhibition of cell proliferation and the maximum inhibition rate were calculated according to formula (2) and formula (3), respectively, wherein Tadministration denotes the cell signal readings obtained after incubation with the compounds for 72 h, and Tvehicle denotes the cell signal readings obtained after incubation with the vehicle control for 72 h.
Calculation of Max inhibition %: after the processing according to formula (2), the inhibition rate of the compounds at the highest concentration was calculated.

Row | IC50 [nM] | Structure (SMILES)
1 | < 500 | Cc1ncsc1-c1ccc([C@H](C)NC(=O)[C@@H]2C[C@@H](O)CN2C(=O)[C@@H](NC(=O)CCCCCC(=O)N2C[C@@H]3C[C@H]2CN3CC[C@H](CSc2ccccc2)Nc2ccc(S(=O)(=O)NC(=O)c3ccc(N4CCN(CC5=C(c6ccc(Cl)cc6)CCC(C)(C)C5)CC4)cc3)cc2S(=O)(=O)C(F)(F)F)C(C)(C)C)cc1 [Compound 13, (2S,4R)-1-((S)-2-(7-((1S,4S)-5-((R)-3-((4-(N-(4-(4-((4′-chloro-4,4-dimethyl-3,4,5,6-tetrahydro-[1,1′-biphenyl]-2-yl)methyl)piperazin-1-yl)benzoyl)sulfamoyl)-2-((trifluoromethyl)sulfonyl)phenyl)amino)-4-(phenylthio)butyl)-2,5-diazabicyclo[2.2.1]heptan-2-yl)-7-oxoheptanamido)-3,3-dimethylbutanoyl)-4-hydroxy-N—((S)-1-(4-(4-methylthiazol-5-yl)phenyl)ethyl)pyrrolidine-2-carboxamide]
2 | < 500 | Cc1ncsc1-c1ccc([C@H](C)NC(=O)[C@@H]2C[C@@H](O)CN2C(=O)[C@@H](NC(=O)CCCCCCCC(=O)N2C[C@H]3CN(CC[C@H](CSc4ccccc4)Nc4ccc(S(=O)(=O)NC(=O)c5ccc(N6CCN(CC7=C(c8ccc(Cl)cc8)CCC(C)(C)C7)CC6)cc5)cc4S(=O)(=O)C(F)(F)F)C[C@H]3C2)C(C)(C)C)cc1 [Compound 16, cis-(2S,4R)-1-((S)-2-(9-(5-((R)-3-((4-(N-(4-(4-((4′-chloro-4,4-dimethyl-3,4,5,6-tetrahydro-[1,1′-biphenyl]-2-yl)methyl)piperazin-1-yl)benzoyl)sulfamoyl)-2-((trifluoromethyl)sulfonyl)phenyl)amino)-4-(phenylthio)butyl)hexahydropyrrolo[3,4-c]pyrrol-2(1H)-yl)-9-oxononanamido)-3,3-dimethylbutanoyl)-4-hydroxy-N—((S)-1-(4-(4-methylthiazol-5-yl)phenyl)ethyl)pyrrolidine-2-carboxamide]
3 | < 500 | Cc1ncsc1-c1ccc([C@H](C)NC(=O)[C@@H]2C[C@@H](O)CN2C(=O)[C@@H](NC(=O)CCCCCCC(=O)N2C[C@H]3CN(CC[C@H](CSc4ccccc4)Nc4ccc(S(=O)(=O)NC(=O)c5ccc(N6CCN(CC7=C(c8ccc(Cl)cc8)CCC(C)(C)C7)CC6)cc5)cc4S(=O)(=O)C(F)(F)F)C[C@H]3C2)C(C)(C)C)cc1 [Compound 17, cis-(2S,4R)-1-((S)-2-(8-(5-((R)-3-((4-(N-(4-(4-((4′-chloro-4,4-dimethyl-3,4,5,6-tetrahydro-[1,1′-biphenyl]-2-yl)methyl)piperazin-1-yl)benzoyl)sulfamoyl)-2-((trifluoromethyl)sulfonyl)phenyl)amino)-4-(phenylthio)butyl)hexahydropyrrolo[3,4-c]pyrrol-2(1H)-yl)-8-oxooctanamido)-3,3-dimethylbutanoyl)-4-hydroxy-N—((S)-1-(4-(4-methylthiazol-5-yl)phenyl)ethyl)pyrrolidine-2-carboxamide]
4 | < 500 | Cc1ncsc1-c1ccc([C@H](C)NC(=O)[C@@H]2C[C@@H](O)CN2C(=O)[C@@H](NC(=O)CCCCCC(=O)N2C[C@H]3CN(CC[C@H](CSc4ccccc4)Nc4ccc(S(=O)(=O)NC(=O)c5ccc(N6CCN(CC7=C(c8ccc(Cl)cc8)CCC8(CC8)C7)CC6)cc5)cc4S(=O)(=O)C(F)(F)F)C[C@H]3C2)C(C)(C)C)cc1 [Compound 18, cis-(2S,4R)-1-((S)-2-(7-(5-((R)-3-((4-(N-(4-(4-((6-(4-chlorophenyl)spiro[2.5]oct-5-en-5-yl)methyl)piperazin-1-yl)benzoyl)sulfamoyl)-2-((trifluoromethyl)sulfonyl)phenyl)amino)-4-(phenylthio)butyl)hexahydropyrrolo[3,4-c]pyrrol-2(1H)-yl)-7-oxoheptanamido)-3,3-dimethylbutanoyl)-4-hydroxy-N—((S)-1-(4-(4-methylthiazol-5-yl)phenyl)ethyl)pyrrolidine-2-carboxamide]
